Experimental data from the supplement of paper PMC12819154, “High-throughput peptide-centric local stability assay extends protein–ligand identification to membrane proteins, tissues and bacteria” (Nature Structural & Molecular Biology, 2025).

Columns and labels:
Test in all cases: pEC50 of peptide local stability change
UniProt P36879 = details: peptide sequence: KTYPGGVQALR; direction: stabilized; replicate design: treated separately
Outline: (§1)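 Each tabulated entry is a mean pEC50 taken across replicates. Four 50 µl replicates of desalted, MgCl2-supplemented E. coli K-12 BW25113 lysate (1.2 mg ml^−1) were exposed to ATP at seven doses from 10 µM to 10 mM, or to water, for 30 min at 25 °C, then trypsin-digested for 4 min at 22 °C and analysed by DIA LC–MS/MS. Treated/control peptide ratios from every replicate were fitted to a four-parameter log-logistic model, and an entry was kept only if fit R^2 exceeded 0.9 in at least three replicates and the coefficient of variation of the estimate was at most 0.25.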

UniProt P23331 = details: peptide sequence: AEHEQQAIHCVLVDECQFLTR; direction: stabilized; replicate design: treated separately
Chain of UniProt P23331 (P23331 whole entry): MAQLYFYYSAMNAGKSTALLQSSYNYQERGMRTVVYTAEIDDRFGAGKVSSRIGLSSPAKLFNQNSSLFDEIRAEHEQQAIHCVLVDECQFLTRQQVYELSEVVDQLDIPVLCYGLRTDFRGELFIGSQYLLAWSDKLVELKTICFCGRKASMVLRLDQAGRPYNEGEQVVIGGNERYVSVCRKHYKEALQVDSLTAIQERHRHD
Outline: as §1

UniProt P15640 = details: peptide sequence: VIEFNCR; direction: stabilized; replicate design: treated separately
Chain of UniProt P15640 (P15640 whole entry): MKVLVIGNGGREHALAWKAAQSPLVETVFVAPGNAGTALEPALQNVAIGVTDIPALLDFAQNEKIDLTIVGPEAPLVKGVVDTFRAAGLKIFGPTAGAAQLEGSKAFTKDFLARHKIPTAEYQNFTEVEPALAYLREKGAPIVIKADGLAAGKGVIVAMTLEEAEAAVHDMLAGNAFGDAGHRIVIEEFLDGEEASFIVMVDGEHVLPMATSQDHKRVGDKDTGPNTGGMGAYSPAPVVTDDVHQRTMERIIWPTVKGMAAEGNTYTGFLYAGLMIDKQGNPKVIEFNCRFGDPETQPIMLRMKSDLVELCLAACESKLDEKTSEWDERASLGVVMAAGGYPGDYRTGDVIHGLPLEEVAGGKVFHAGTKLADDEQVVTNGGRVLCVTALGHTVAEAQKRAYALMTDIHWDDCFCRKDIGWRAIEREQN
Outline: as §1

UniProt P76256 = details: peptide sequence: GPGSFTGVR; direction: stabilized; replicate design: treated separately
Chain of UniProt P76256 (P76256 whole entry): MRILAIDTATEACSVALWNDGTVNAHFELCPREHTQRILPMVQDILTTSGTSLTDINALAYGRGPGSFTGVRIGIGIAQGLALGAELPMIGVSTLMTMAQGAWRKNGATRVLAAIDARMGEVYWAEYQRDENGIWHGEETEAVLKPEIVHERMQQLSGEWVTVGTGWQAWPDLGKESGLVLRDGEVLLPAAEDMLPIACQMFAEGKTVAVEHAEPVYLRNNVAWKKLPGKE
Outline: as §1

UniProt P37908 = details: peptide sequence: QLSHSPHGR; direction: stabilized; replicate design: treated separately
Chain of UniProt P37908 (P37908 whole entry): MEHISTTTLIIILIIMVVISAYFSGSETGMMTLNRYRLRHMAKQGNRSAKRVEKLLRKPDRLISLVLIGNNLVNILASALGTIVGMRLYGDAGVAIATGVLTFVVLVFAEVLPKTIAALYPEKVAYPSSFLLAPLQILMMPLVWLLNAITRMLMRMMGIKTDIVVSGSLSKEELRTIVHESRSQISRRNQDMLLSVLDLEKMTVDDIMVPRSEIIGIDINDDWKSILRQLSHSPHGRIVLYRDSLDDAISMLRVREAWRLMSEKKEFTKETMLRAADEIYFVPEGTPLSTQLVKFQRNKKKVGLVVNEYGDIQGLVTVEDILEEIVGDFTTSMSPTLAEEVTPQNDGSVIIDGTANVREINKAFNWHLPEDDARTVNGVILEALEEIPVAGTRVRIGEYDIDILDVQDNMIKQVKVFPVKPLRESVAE
Outline: as §1

UniProt Q46927 = details: peptide sequence: AALIAYCR; direction: stabilized; replicate design: treated separately
Chain of UniProt Q46927 (Q46927 whole entry): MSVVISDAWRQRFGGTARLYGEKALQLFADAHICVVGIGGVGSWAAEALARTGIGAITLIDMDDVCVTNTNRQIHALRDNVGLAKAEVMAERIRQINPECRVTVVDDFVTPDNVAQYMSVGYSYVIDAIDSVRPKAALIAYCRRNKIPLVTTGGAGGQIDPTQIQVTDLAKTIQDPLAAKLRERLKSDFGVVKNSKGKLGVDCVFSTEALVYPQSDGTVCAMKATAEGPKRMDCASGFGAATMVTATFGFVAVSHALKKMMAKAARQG
Outline: as §1

MurD = MurD (UniProt P14900); details: peptide sequence: YLNGDNVR; direction: stabilized; replicate design: treated separately
Chain of MurD (P14900 whole entry): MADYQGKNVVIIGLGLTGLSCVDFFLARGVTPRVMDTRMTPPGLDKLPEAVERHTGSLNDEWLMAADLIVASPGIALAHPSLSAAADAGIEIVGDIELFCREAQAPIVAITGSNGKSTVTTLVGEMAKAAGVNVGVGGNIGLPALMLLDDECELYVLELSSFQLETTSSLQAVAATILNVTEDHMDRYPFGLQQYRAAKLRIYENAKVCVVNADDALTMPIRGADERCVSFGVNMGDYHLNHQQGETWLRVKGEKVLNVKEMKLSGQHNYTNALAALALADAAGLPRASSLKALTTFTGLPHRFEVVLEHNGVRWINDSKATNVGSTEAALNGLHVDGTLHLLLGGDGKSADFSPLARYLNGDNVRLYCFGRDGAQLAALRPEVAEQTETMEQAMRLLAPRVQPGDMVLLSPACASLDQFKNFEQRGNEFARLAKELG
Outline: as §1

UniProt P27550 = details: peptide sequence: NTSFAPGNVSIK; direction: stabilized; replicate design: treated separately
Chain of UniProt P27550 (P27550 whole entry): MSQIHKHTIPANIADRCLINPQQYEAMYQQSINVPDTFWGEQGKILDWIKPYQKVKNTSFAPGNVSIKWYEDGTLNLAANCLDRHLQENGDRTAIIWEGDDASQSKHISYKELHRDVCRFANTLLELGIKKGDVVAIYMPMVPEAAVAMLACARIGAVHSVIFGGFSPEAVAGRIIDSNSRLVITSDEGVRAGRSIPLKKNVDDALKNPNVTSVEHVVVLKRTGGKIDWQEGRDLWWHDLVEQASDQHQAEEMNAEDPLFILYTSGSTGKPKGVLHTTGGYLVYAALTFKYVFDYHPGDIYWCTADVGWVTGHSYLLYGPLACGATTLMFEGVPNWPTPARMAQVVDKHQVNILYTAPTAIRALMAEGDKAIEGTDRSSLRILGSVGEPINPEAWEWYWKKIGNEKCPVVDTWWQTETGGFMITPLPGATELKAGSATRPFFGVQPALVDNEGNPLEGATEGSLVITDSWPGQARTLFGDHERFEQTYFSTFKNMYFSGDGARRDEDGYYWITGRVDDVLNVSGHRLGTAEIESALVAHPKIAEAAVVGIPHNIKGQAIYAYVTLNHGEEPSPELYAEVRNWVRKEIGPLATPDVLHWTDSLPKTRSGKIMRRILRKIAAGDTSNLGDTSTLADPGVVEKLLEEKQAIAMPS
Outline: as §1

UniProt P14081 = details: peptide sequence: LFITAATEGR; direction: stabilized; replicate design: treated separately
Chain of UniProt P14081 (P14081 whole entry): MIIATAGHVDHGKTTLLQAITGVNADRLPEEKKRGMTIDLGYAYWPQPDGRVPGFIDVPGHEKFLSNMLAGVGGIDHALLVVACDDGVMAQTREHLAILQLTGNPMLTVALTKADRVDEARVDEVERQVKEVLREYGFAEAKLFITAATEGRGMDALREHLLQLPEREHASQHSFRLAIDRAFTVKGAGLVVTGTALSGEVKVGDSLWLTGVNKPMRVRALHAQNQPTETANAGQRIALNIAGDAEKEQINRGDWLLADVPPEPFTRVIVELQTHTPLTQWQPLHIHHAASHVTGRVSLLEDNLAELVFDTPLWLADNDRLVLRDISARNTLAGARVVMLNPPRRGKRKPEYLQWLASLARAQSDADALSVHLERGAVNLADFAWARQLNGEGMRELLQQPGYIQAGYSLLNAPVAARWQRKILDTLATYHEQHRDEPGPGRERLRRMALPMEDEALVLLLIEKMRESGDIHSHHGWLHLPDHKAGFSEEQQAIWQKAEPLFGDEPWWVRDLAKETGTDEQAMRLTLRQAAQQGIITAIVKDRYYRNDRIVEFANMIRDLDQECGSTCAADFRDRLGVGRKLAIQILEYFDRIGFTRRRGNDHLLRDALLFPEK
Outline: as §1

UniProt P31142 = details: peptide sequence: FNAEVDEPRPGLR; direction: stabilized; replicate design: treated separately
Chain of UniProt P31142 (P31142 whole entry): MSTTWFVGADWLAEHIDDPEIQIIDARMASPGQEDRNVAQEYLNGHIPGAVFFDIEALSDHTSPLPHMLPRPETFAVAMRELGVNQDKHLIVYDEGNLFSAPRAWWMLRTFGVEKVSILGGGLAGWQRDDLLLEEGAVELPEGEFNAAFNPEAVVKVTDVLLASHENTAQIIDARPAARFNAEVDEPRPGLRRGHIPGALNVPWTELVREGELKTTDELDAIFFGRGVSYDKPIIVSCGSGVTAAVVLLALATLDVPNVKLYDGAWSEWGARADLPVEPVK
Outline: as §1

UniProt P0AFW8 = details: peptide sequence: KNVEYLVVEAAGETR; direction: stabilized; replicate design: treated separately
Chain of UniProt P0AFW8 (P0AFW8 whole entry): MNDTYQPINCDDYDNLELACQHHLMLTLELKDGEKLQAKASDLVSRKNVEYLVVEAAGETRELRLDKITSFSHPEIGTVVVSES
Outline: as §1

Chain of UniProt P36879 (P36879 whole entry): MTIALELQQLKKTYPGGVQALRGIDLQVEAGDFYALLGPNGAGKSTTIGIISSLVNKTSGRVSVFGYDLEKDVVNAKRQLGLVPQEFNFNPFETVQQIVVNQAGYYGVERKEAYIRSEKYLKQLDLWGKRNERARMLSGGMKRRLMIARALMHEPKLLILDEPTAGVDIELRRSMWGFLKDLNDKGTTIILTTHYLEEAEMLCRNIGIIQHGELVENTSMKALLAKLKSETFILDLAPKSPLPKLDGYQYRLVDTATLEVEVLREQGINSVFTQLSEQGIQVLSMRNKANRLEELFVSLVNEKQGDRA

Nc1ncnc2c1ncn2[C@@H]1O[C@H](COP(=O)(O)OP(=O)(O)OP(=O)(O)O)[C@@H](O)[C@H]1O [adenosine 5'-triphosphate]
Details	pEC50 of peptide local stability change
MurD	3.82
UniProt P0AFW8	3.07
UniProt P14081	3.42
UniProt P15640	3.7
UniProt P23331	3.2
UniProt P27550	3.34
UniProt P31142	3.24
UniProt P36879	3.73
UniProt P37908	2.73
UniProt P76256	3.97
UniProt Q46927	3.69
